Converted amounts (≈) assume the structure as drawn. Like-named read-outs stand apart in the source and are kept apart here.
How the values were obtained:
[1] = Lipophilicity (logD); format: physicochemical
[2] = molecular target: T1, hGPR65-SmBiT (Homo sapiens, UniProt Q8IYL9); experiment: Nano-BiT target engagement, LgBiT-mGs recruitment to hGPR65-SmBiT in Expi293F cells; format: cell-based; details: 10 μM
T1 construct: expressed in transfected cells; host or cells: Expi293F (Gibco), transient transfection
Method: (§1) Target engagement was measured in Expi293F (Gibco, 100044202) cells using the Nano-Glo Live Cell Assay System (Promega, N2011). Nano-BiT plasmids were cloned from GPR65-, GPR4-, and GPR68-Tango plasmids. GPR65-Tango (Addgene plasmid # 66370; http://n2t.net/addgene:66370; RRID:Addgene_66370), GPR4-Tango (Addgene plasmid # 66358; http://n2t.net/addgene:66358; RRID:Addgene_66358), and GPR68-Tango (Addgene plasmid # 66371; http://n2t.net/addgene:66371; RRID:Addgene_66371) were gifts from Bryan Roth. Expi293F cells were transfected 1 day before kinetics with 500 ng of each plasmid using ExpiFectamine 293 Transfection Kit (Gibco, A14525). After 24 hours, cells were collected, washed, and resuspended in room temperature 0.1% PBS-BSA, adjusted to pH 7.4 using 1 M NaOH. Cells were transferred to white opaque 96-well microplates (100 μl per well, PerkinElmer, 6005290), followed by addition of the Nano-Glo Live Cell Reagent (25 μl per well). Baseline luminescence was measured for 10 cycles (1 cycle = 90 s) before adding compounds. All luminescence measurements were made on BMG Labtech PHERAstar FSX. Data analysis was performed using GraphPad Prism.

[3] = molecular target: T2, hGPR4-SmBiT (Homo sapiens, UniProt P46093); experiment: Nano-BiT target engagement, LgBiT-mGs recruitment to hGPR4-SmBiT; format: cell-based; details: 10 μM
T2 construct: expressed in transfected cells; host or cells: Expi293F (Gibco), transient transfection
Method: as §1

[4] = molecular target: T3, mGPR65-SmBiT (Mus musculus, UniProt Q61038); experiment: Nano-BiT target engagement, LgBiT-mGs recruitment to mGPR65-SmBiT; format: cell-based; details: 10 μM
T3 construct: expressed in transfected cells; host or cells: Expi293F (Gibco), transient transfection
Method: as §1

[5] = molecular target: T4, hGPR65 I231L-SmBiT (Homo sapiens, UniProt Q8IYL9, I231L); experiment: Nano-BiT target engagement, LgBiT-mGs recruitment to hGPR65 I231L-SmBiT; format: cell-based; details: 10 μM
T4 construct: expressed in transfected cells; host or cells: Expi293F (Gibco), transient transfection
Method: as §1

[6] = molecular target: T5, hGPR65 (Homo sapiens, UniProt Q8IYL9); experiment: cAMP detection in HeLa expression cell line, hGPR65; format: cell-based; details: for Emax: HeLa, relative to 100uM forskolin (100%) and DMSO (0%), read-out: hGPR Max Activity %
T5 construct: expressed in transfected cells; host or cells: HeLa (ATCC CCL-2), lentiviral transduction, pLX317
In short: (§2)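 HeLa cells stably expressing C-terminally V5-tagged receptor or GFP (lentiviral, puromycin 3 μg/ml) stimulated at 1500 cells per well for 30 min at RT with compound (10 mM DMSO stock) in stimulation buffer at pH 7.2. cAMP detected by Lance Ultra TR-FRET after lysis and 1 h detection, excitation 337 nm, emission 620/665 nm.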

[7] = tested on: WT HeLa cells expressing hGPR65; experiment: Cytotoxicity assay (CellTiter-Glo, 72 hours); format: cell-based, human
Method: WT HeLa cells expressing hGPR65 were seeded at 2000 cells per well in 384-well plates. Compounds were tested in 10-point dose, starting at 50 μM. Cells were incubated with compounds for 72 hours at 37°C, 5% CO2. Cytotoxicity was measured using CellTiter-Glo Luminescent Cell Viability Assay (Promega, G7572) according to the manufacturer’s protocol. Luminescence measurements were made on BMG Labtech PHERAstar FSX. Data analysis was performed using GraphPad Prism.

[8] = Solubility in phosphate buffer; format: physicochemical; details: read-out: solubility in phosphate buffer
[9] = molecular target: T6, mGPR65 (Mus musculus, UniProt Q61038); experiment: cAMP detection in HeLa expression cell line, mGPR65; format: cell-based; details: for Emax: HeLa, relative to 100uM forskolin (100%) and DMSO (0%), read-out: mGPR Max Activity %; for EC50: mGPR EC50 (uM)
T6 construct: expressed in transfected cells; host or cells: HeLa (ATCC CCL-2), lentiviral transduction, pLX317
In short: as §2

[10] = 2nd mGPR column pair, NA = no activity

T5 sequence (Q8IYL9 whole entry): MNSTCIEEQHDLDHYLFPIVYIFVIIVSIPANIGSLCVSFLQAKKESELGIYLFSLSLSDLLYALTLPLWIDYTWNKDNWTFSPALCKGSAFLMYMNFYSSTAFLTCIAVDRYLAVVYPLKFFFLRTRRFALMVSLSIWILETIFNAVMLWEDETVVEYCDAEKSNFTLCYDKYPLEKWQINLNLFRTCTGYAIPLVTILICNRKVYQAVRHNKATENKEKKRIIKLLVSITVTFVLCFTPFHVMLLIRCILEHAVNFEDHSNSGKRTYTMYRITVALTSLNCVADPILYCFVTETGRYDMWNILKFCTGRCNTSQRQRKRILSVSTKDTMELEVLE
T6 sequence (Q61038 whole entry): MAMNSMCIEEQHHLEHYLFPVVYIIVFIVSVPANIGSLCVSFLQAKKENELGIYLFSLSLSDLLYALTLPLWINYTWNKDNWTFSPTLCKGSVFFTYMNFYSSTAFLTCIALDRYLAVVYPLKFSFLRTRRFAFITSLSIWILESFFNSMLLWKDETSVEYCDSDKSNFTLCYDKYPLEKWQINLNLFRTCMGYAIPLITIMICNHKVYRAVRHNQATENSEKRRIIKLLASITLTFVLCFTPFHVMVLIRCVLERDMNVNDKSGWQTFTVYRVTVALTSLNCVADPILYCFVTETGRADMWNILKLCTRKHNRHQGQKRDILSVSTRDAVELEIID
T1 sequence (Q8IYL9 whole entry): as the sequence (Q8IYL9 whole entry) above
T3 sequence (Q61038 whole entry): as the sequence (Q61038 whole entry) above
T2 sequence (P46093 whole entry): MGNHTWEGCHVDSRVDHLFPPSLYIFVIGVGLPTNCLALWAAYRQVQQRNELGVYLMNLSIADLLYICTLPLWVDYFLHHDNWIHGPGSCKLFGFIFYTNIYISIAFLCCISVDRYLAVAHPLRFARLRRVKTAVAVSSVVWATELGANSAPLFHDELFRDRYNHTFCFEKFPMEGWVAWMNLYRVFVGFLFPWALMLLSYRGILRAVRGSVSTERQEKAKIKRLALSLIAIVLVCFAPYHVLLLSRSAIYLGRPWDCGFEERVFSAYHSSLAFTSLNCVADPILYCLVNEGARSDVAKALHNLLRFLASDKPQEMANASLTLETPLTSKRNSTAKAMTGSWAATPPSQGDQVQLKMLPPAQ
T4 sequence (Q8IYL9 whole entry I231L): as the sequence (Q8IYL9 whole entry) above, with I231L counted along it

SMILES: Cc1ccc(NC(=O)c2cnn3c(O)cc(-c4ccc(COC(C)C)cc4)nc23)c(F)c1 [BRD5080, O=C(NC1=C(F)C=C(C)C=C1)C2=C3N(N=C2)C(O)=CC(C4=CC=C(COC(C)C)C=C4)=N3]
- logD ([1]; pH 7.4, pH7.4, read-out: LogD (pH7.4)): 3.65
- logD ([1]; read-out: lipophilicity (logD)): 3.62
- mGs recruitment / engagement of hGPR65 [2]: showed engagement
- activity after HCl versus water, hGPR65 ([2]; HCl or H2O at cycle 10): showed activity when preceded by the addition of HCl but not water
- response in cells expressing hGPR4-SmBiT [3]: failing to elicit responses
- mGs recruitment / engagement of mGPR65 [4]: showed engagement
- activity after HCl versus water, mGPR65 ([4]; HCl or H2O at cycle 10): showed activity when preceded by the addition of HCl but not water
- G protein recruitment in cells expressing hGPR65 I231L [5]: able to recruit G protein
- mode of action from pH-dependent cAMP production ([6]; 0 to 50 μM, pH range of 6.6 to 7.6): PAMs
- activity for hGPR65 among prioritized molecules ([6]; 1.56 μM, pH 7.2): highest activity
- Emax ([6]; 1st hGPR column pair, NA = no activity): 80%
- Emax ([6]; 2nd hGPR column pair, NA = no activity): 70.4%
- EC50 ([6]; hGPR EC50 (uM), NA = no activity): 0.856 µM
- EC50 ([6]; hGPR EC50 (uM), pH 7.2, 30 min): 1.41 µM
- EC50 ([6]; hGPR EC50, NA = no activity): 1.66 µM
- EC50 ([6]; hGPR EC50, pH 7.2, 30 min): 1.5 µM
- cAMP activity, hGPR65 ([6]; pH 7.2): at least 40%
- cell viability ([7]; 50 μM, 72 hours): slight decrease in cell viability
- cytotoxicity ([7]; 72-hour incubation, 0-50 μM): not cytotoxic
- solubility [8]: 13.6 µM (≈ 5.91 µg/mL)
- activity for mGPR65 among prioritized molecules ([9]; 1.56 μM, pH 7.2): highest activity
- cAMP response against mGPR65 among prioritized compounds ([9]; HeLa cells): highest cAMP response
- Emax [9, 10]: 56%
- Emax ([9]; NA = no activity): 63.5%
- EC50 [9, 10]: 0.371 µM
- EC50 ([9]; first pair of columns, pH 7.2, 30 min): 0.432 µM
- EC50 ([9]; second pair of columns, pH 7.2, 30 min): 0.653 µM
- EC50 ([9]; NA = no activity): 0.0578 µM
- cAMP activity, mGPR65 ([9]; pH 7.2): at least 40%
